Experimental data published in patent US9187426B2, “Organic compounds” (Novartis AG, priority 2008, dated 2015).
Structures can show the parent of a compound that is named as a salt.

| SMILES | melting point |
| --- | --- |
| O=C(NCc1ccccn1)c1ccnc(N2CCN(Cc3ccc(F)cc3)C2=O)c1 (as salt: hydrochloride) [Example 15.3, 2-(3-(4-fluorobenzyl)-2-oxoimidazolidin-1-yl)-N-(pyridin-2-ylmethyl)isonicotinamide dihydrochloride] | 141 to 143 °C |
| O=C(NCc1ccc(C(F)(F)F)cc1)c1ccnc(NC(=O)c2ccccc2)c1 [Example 1, 2-benzamido-N-(4-(trifluoromethyl)benzyl)isonicotinamide] | 165 to 168 °C |
| Cc1ccc(CNC(=O)c2ccnc(NC(=O)c3ccccc3)c2)cc1 [Example 1.2, 2-benzamido-N-(4-methylbenzyl)isonicotinamide] | 135 to 138 °C |
| O=C(Nc1cc(-c2nc3ccccc3[nH]2)ccn1)c1ccccc1 [Example 4, N-(4-(1H-benzo[d]imidazol-2-yl)pyridin-2-yl)benzamide] | 145 to 146 °C |
| O=C(NCc1ccccc1)c1ccnc(NC(=O)c2ccccc2)c1 [Example 5, 2-benzamido-N-benzylisonicotinamide] | 174 to 176 °C |
| O=C(NCc1ccccc1)c1ccnc(NC(=O)c2ccc(OC(F)(F)F)cc2)c1 [Example 5.1, N-benzyl-2-(4-trifluoromethoxybenzoylamino)isonicotinamide] | 151 to 153 °C |
| O=C(NCc1ccccc1)c1ccnc(NC(=O)c2ccc(C(F)(F)F)cc2)c1 [Example 5.2, N-benzyl-2-(4-trifluoromethylbenzoylamino)isonicotinamide] | 181 to 183 °C |
| O=C(CCc1ccccc1)Nc1cc(C(=O)NCc2ccccc2)ccn1 [Example 5.3, N-benzyl-2-(3-phenylpropanamido)isonicotinamide] | 177 to 179 °C |
| O=C(NCc1ccccc1)c1ccnc(NC(=O)c2ccccc2F)c1 [Example 6, N-benzyl-2-(2-fluorobenzamido)isonicotinamide] | 175 to 176 °C |
| O=C(NCc1ccccc1)c1ccnc(NC(=O)c2cccc(F)c2)c1 [Example 6.1, N-benzyl-2-(3-fluorobenzamido)isonicotinamide] | 140 to 143 °C |
| O=C(NCc1ccccc1)c1ccnc(NC(=O)C2CCCC2)c1 [Example 6.2, N-benzyl-2-(cyclopentanecarboxamido)isonicotinamide] | 55 to 57 °C |
| O=C(NCc1ccccc1)c1ccnc(NC(=O)c2cccs2)c1 [Example 6.3, N-benzyl-2-(thiophene-2-carboxamido)isonicotinamide] | 160 to 162 °C |
| COc1ccc(C(=O)Nc2cc(C(=O)NCc3ccccc3)ccn2)cc1 [Example 6.5, N-benzyl-2-(4-methoxybenzamido)isonicotinamide] | 165 to 166 °C |
| COc1ccccc1C(=O)Nc1cc(C(=O)NCc2ccccc2)ccn1 [Example 6.6, N-benzyl-2-(2-methoxybenzamido)isonicotinamide] | 205 to 207 °C |
| O=C(NCc1ccccc1)c1ccnc(NC(=O)c2cccc3ccccc23)c1 [Example 6.7, 2-(1-naphthamido)-N-benzylisonicotinamide] | 65 to 67 °C |
| O=C(NCc1ccccc1)c1ccnc(NC(=O)c2cc(F)ccc2Cl)c1 [Example 6.9, N-benzyl-2-(2-chloro-5-fluorobenzamido)isonicotinamide] | 180 to 181 °C |
| N#Cc1ccc(C(=O)Nc2cc(C(=O)NCc3ccccc3)ccn2)cc1 [Example 6.10, N-benzyl-2-(4-cyanobenzamido)isonicotinamide] | 180 to 181 °C |

| SMILES | melting point |
| --- | --- |
| CS(=O)(=O)c1cccc(C(=O)Nc2cc(C(=O)NCc3ccccc3)ccn2)c1 [Example 6.13, N-benzyl-2-(3-(methylsulfonyl)benzamido)isonicotinamide] | 170 to 171 °C |
| O=C(NCc1ccccc1)c1ccnc(NC(=O)c2ccc(F)cc2)c1 [Example 6.14, N-benzyl-2-(4-fluorobenzamido)isonicotinamide] | 170 to 171 °C |
| O=C(NCc1ccccc1)c1ccnc(NC(=O)c2cccc(C(F)(F)F)c2)c1 [Example 6.15, N-benzyl-2-(3-(trifluoromethyl)benzamido)isonicotinamide] | 126 to 128 °C |
| COc1cc(C(=O)NCc2ccccc2)cc(NC(=O)c2ccccc2)n1 [Example 6.17, 2-benzamido-N-benzyl-6-methoxyisonicotinamide] | 132 to 133 °C |
| O=C(NCc1ccccc1)c1cc[n+]([O-])c(NC(=O)c2ccccc2)c1 [Example 7, 2-benzamido-N-benzylisonicotinamide-1-N-oxide] | 198 to 201 °C |
| O=C(NCc1ccccc1)c1cc(O)nc(NC(=O)c2ccccc2)c1 [Example 8, 2-benzamido-N-benzyl-6-hydroxyisonicotinamide] | 257 °C (dec.) |
| Cc1c[nH]c(-c2ccnc(NC(=O)c3ccccc3)c2)n1 [Example 10, N-(4-(4-methyl-1H-imidazol-2-yl)pyridin-2-yl)benzamide] | 133 to 135 °C |
| CCCc1c[nH]c(-c2ccnc(NC(=O)c3ccccc3)c2)n1 [Example 10.1, N-(4-(4-propyl-1H-imidazol-2-yl)pyridin-2-yl)benzamide] | 95 to 97 °C |
| CC(C)Cc1c[nH]c(-c2ccnc(NC(=O)c3ccccc3)c2)n1 [Example 10.3, N-(4-(4-isobutyl-1H-imidazol-2-yl)pyridin-2-yl)benzamide] | 103 to 105 °C |
| O=C(Nc1cc(-c2nc(-c3ccccc3)c[nH]2)ccn1)c1ccccc1 [Example 10.5, N-(4-(4-phenyl-1H-imidazol-2-yl)pyridin-2-yl)benzamide] | 265 to 267 °C |
| O=C(Nc1cc(-c2nnc(-c3ccccc3)o2)ccn1)c1ccccc1 [Example 11, N-(4-(5-phenyl-1,3,4-oxadiazol-2-yl)pyridin-2-yl)benzamide] | 151 to 155 °C |
| O=C(Nc1cc(-c2nnc(Cc3ccccc3)o2)ccn1)c1ccccc1 [Example 11.1, N-[4-(5-benzyl-[1,3,4]oxadiazol-2-yl)-pyridin-2-yl]benzamide] | 187 to 189 °C |
| O=C(Nc1cc(-c2nc(Cc3ccccc3)no2)ccn1)c1ccccc1 [Example 12, N-[4-(3-benzyl-[1,2,4]oxadiazol-5-yl)-pyridin-2-yl]benzamide] | 150 to 151 °C |
| CNC(=O)c1ccnc(N2CCN(Cc3ccc(F)cc3)C2=O)c1 [Example 13, 2-(3-(4-fluorobenzyl)-2-oxoimidazolidin-1-yl)-N-methylisonicotinamide] | 118 to 120 °C |
| O=C(NCc1cncs1)c1ccnc(N2CCN(Cc3ccc(F)cc3)C2=O)c1 [Example 14.1, 2-(3-(4-fluorobenzyl)-2-oxoimidazolidin-1-yl)-N-(thiazol-5-ylmethyl)isonicotinamide] | 148 to 150 °C |
| O=C(NCc1nccs1)c1ccnc(N2CCN(Cc3ccc(F)cc3)C2=O)c1 [Example 14.3, 2-(3-(4-fluorobenzyl)-2-oxoimidazolidin-1-yl)-N-(thiazol-2-ylmethyl)isonicotinamide] | 123 to 125 °C |
| O=C(NCc1ncco1)c1ccnc(N2CCN(Cc3ccc(F)cc3)C2=O)c1 [Example 14.4, 2-(3-(4-fluorobenzyl)-2-oxoimidazolidin-1-yl)-N-(oxazol-2-ylmethyl)isonicotinamide] | 148 to 150 °C |
